# According to patent US20190192524A1, “Modulators of Caspase-6” (The University of British Columbia, priority 2014, published 2019):
# How the values were obtained:
# [1] = molecular target: T1, interaction between 1212AA Htt and caspase-6 (Homo sapiens, UniProt P55212); assay: Co-immunoprecipitation of Htt with caspase-6 antibody from COS-7 lysates; type: cell-based; conditions: 3 uM inhibitor, vs DMSO
# T1 construct: DDK-tag (C); expressed in transfected cells; host or cells: COS-7
# T1 sequence (P55212 with tags, fused parts or gaps): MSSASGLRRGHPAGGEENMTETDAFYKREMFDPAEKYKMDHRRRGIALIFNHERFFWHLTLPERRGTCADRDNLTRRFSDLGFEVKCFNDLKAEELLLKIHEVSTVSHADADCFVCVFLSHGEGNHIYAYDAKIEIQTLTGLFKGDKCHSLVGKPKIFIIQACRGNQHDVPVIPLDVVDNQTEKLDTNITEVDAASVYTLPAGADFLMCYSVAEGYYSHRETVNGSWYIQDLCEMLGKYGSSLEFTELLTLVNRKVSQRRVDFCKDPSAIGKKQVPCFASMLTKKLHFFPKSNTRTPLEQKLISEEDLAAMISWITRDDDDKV
# Experimental: (§1) COS-7 cells were co-transfected with the 1212 amino acid HTT fragment (SEQ ID NO: 3) and the full length human caspase-6 enzyme (SEQ ID NO:4). The co-transfected cells were exposed to either 10 uM of the PG3d compound, 3 uM of the Q-VD-Oph pan-caspase inhibitor or were treated with DMSO as a control. An aliquot of the cell lysates were subjected to Western blotting to detect HTT fragments with the Htt antibody 2166 (Millipore) and the presence of caspase-6 was detected using the HD91 antibody (Ehrnhoefer et al, HMG, 2014. 23(3):717-29). The remaining cell lysates (500 ug protein) were immunoprecipitated with 5 ug of Caspase-6 antibody for 16 hrs at 4 C. The immunoprecipitated proteins were then applied to acrylamide gels and immunoblotted to detect either the HTT fragments or the presence of the active caspase 6 enzyme using the antibodies described above.
# As expected, the DMSO control lysates reveal a variety of Htt fragments within the immunocomplexes, including 513AA fragment generated by caspase-3 cleavage, the full-length 1212AA Htt and the 586AA fragment generated by caspase-6 cleavage. When the cells are treated with the pan-caspase inhibitor Q-VD-OPh, the amount of Htt cleavage fragments interacting with caspase-6 is reduced and it is evident that caspase-6 is primarily interacting with the 1212 AA Htt.
# [2] = molecular target: T2, full-length human caspase-6 (Homo sapiens, UniProt P55212); assay: Western blot of Htt fragments in COS-7 cells co-transfected with Htt 1-1212AA and full-length caspase-6; type: cell-based; conditions: 3 uM inhibitor, 24 hr, vs DMSO
# T2 construct: DDK-tag (C); expressed in transfected cells; host or cells: COS-7
# T2 sequence (P55212 with tags, fused parts or gaps): T1 sequence (P55212 with tags, fused parts or gaps)
# Experimental: as §1
# Cos-7 cells were co-transfected with Htt 1-1212AA (SEQ ID NO:3) and full-length human caspase-6 (SEQ ID NO:6), and exposed to either the pan-caspase inhibitor Q-VD-OPh, the PG3d compound or DMSO as a negative control. As shown in the upper panel of FIG. 9A, control cells that received DMSO alone (lanes labelled n.t.) show the presence of the Htt 1212AA protein and the Htt proteolytic cleavage fragments including the 586, 552 and 513 amino acid fragments. […]
# [3] = molecular target: T3, human caspase 6 lacking the pro-domain (Homo sapiens, UniProt P55212); assay: Intracellular Htt cleavage by Western blot in co-transfected COS-7 cells; type: cell-based; parameters: DDK-tag (C); expressed in transfected cells; host or cells: COS-7; conditions: 3 uM inhibitor
# T3 sequence (P55212 with tags, fused parts or gaps): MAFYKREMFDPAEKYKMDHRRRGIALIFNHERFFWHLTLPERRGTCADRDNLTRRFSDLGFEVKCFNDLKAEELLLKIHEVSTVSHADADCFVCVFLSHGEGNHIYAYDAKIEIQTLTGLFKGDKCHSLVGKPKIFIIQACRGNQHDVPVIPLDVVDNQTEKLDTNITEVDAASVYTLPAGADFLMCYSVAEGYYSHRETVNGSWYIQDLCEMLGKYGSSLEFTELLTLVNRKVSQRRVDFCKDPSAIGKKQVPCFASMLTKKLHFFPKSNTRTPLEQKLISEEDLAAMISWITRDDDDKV
# Experimental: COS-7 cells were co-transfected with the 4c htt fragment and the human caspase-6 lacking the pro-domain which leads to fast autoactivation of the caspase-6 enzyme and the generation of the 586 aa Htt cleavage fragment. The co-transfected cells were exposed to either 10 uM of the PG3d compound, 3 uM of the Q-VD-Oph pan-caspase inhibitor or were left untreated. Non-transfected cells were included as a negative control and the purified 586 aa Htt fragment was included as a positive control. Cell lysates were subjected to Western blotting and the 586AA fragment generated intracellularly was detected with Htt antibody 2166 (Millipore). Caspase-6 expression and activation was assessed by Western blotting using antibody HD91 (Ehrnhoefer et al, HMG, 2014. 23(3):717-29).
# COS-7 cells were co-transfected with the 4c htt fragment and the human caspase-6 lacking the pro-domain which leads to fast autoactivation of the caspase-6 enzyme and the generation of the 586 aa Htt cleavage fragment. […] Non-transfected cells were included as a negative control and the purified 586 aa Htt fragment was included as a positive control. […] The cell lysates were also assayed for the levels of active caspase 6 enzyme as shown in the lower panel of FIG. 5B.
# recombinant caspase-6 = molecular target: T4, recombinant caspase-6 (Homo sapiens, UniProt P55212); assay: Simultaneous caspase-6 cleavage and 586 fragment detection by FRET; type: biochemical; conditions: cell-free; Htt substrate from COS-7 cell lysates
# T4 construct: purchased BioMol
# T4 sequence (P55212 24-293): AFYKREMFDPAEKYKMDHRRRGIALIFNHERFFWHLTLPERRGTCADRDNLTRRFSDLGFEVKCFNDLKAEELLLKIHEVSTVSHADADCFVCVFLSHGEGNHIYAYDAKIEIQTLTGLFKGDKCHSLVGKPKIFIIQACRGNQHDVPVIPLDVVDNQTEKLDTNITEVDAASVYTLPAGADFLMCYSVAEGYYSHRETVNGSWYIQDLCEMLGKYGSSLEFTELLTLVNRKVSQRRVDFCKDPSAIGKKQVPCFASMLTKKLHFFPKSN
# Experimental: Different concentrations of the PG3 compounds were incubated with the Htt protein and the caspase-6 enzyme. The Htt substrate from COS-7 cell lysates is cleaved by caspase 6 and fragments are detected by FRET between the N-terminal BKP1 antibody and the neo-epitope antibody against amino acid 586.
# COS-7 cells were grown in DMEM supplemented with 10% fetal bovine serum, 1%/penicillin/streptomycin and 0.5% glutamine. Transfections were performed using the Fugene reagent (Roche) according to manufacturer's instructions. The transfected DNA encodes amino acids 1-1212 of the human Htt protein with 15 glutamines and a C-terminal HA-tag, under control of a CMV promoter (Warby, 2008, supra; Wellington et al., 2000. J Biol Chem 275:19831-19838). The construct that was transfected is 4c Htt, which contains D→A mutations at amino acids 513, 530, 552 and […] (SEQ ID NO: 1). 24 h after transfection, cells were harvested by trypsinization, pellets washed in PBS and lysed by suspension in lysis buffer (50 mM Tris pH 8, 150 mM NaCl, 1% Igepal, supplemented with 1× complete protease inhibitor (Roche) and 4 mM Pefabloc). Lysates were incubated on ice for 10 min, vortexed and sonicated for 4 sec before centrifugation at 21,000×g for 10 min at 4° C. Supernatants were saved, protein concentration determined with the Biorad DC assay and stored at −80° C. until use.
# Dilution series of cell lysates and caspase-6 (2.2× final concentration) were prepared in FRET cleavage buffer (10 mM HEPES pH 7.4, 100 mM NaCl, 0.05% gelatin, 0.1% CHAPS, 2 mM DTT) since this buffer was previously found to best stabilize caspase-6 in dilute form at room temperature. For negative controls, 22 μM zVAD-fmk was added to the caspase-6 dilutions.
# Tb-labelled BKP1 antibody and D2-labelled 586 antibody (Cisbio) were diluted to 1 ng/μl (Tb) and 10 ng/μl (D2) in FRET cleavage buffer and pre-mixed at a 1:1 ratio.
# In each well of a white 384 well plate (Nunc), 10 μl cell lysate were mixed with 10 μl caspase and 2 μl antibody mix, the plate was centrifuged briefly and incubated in the Victor 3 multilabel plate reader (Perkin Elmer) at 37° C. FRET was measured every 30 min for up to 2 h with the following settings: Excitation: 340 nm, Emission 1: 615 nm, Emission 2: 665 nm, 50 μs delay, 200 μs window time, 2000 μs cycle time. To obtain the final FRET signal, the ratio between Emission 2/Emission 1 (D2/Tb signal) was calculated. After 2 h at 37° C., the assay plate was sealed and after further incubation at 4° C. for 20 h, the FRET signal was read again.
# [4] = molecular target: T3, human caspase 6 lacking the pro-domain; assay: Lamin A cleavage in HEK 293 cells overexpressing caspase-6 (Mesoscale ELISA); type: cell-based; parameters: The transfected DNA encodes amino acids 24-293 of the human caspase 6 enzyme with a C-terminal DDK tag; DDK-tag (C); expressed in transfected cells; host or cells: HEK 293; conditions: 24 hr incubation; cleaved lamin A quantified; read-out: HEK intracellular IC50
# Experimental: HEK 293 cells were grown in DMEM supplemented with 10% fetal bovine serum, 1%/penicillin/streptomycin and 0.5% glutamine. Transfections were performed using the Fugene reagent (Roche) according to manufacturer's instructions. The transfected DNA encodes amino acids 24-293 of the human caspase 6 enzyme with a C-terminal DDK tag under the control of a CMV promoter (vector pCMVSport6) (SEQ ID NO: 2). The transfected HEK 293 were used to measure the intracellular activity of caspase-6 as evidenced by cleavage of the lamin substrate (described below).
# The quantitative assessment of intracellular lamin cleavage in caspase-6 transfected HEK 293 cells was done as described previously (Ehrnhoefer et al. PLoS One, 2011. 6(11):e27680) Briefly, HEK 293 cell lysates were adjusted to 1 μg protein/μl in lysis buffer, diluted to 0.2 μg/μl in PBS and 5 μl were added to a Multi-Array high-bind 96 well plate (Mesoscale discovery). After incubation at room temperature for 1 h, the wells were blocked by adding 150 μl 5% BSA in PBS, followed by further incubation at room temperature for 1 h. Wells were then washed 3× with 150 μl PBS+0.05% Tween, and 25 μl antibody mix was added (Cell signaling #2036 at 1:100 dilution, Mesoscale discovery goat-anti-rabbit sulfo-tag at 1:500 dilution in PBS with 1% BSA). After lh incubation at room temperature, the wells were washed 3× with 150 μl PBS+0.05% Tween, and 150 μl/well 2× reading reagent (Mesoscale discovery) was added. The plate was read on a Sector imager 6000 (Mesoscale discovery).
# The PG3 analog compounds were also tested for their ability to inhibit caspase-6 within cultured cells. HEK 293 cells were transfected with human caspase 6 lacking the pro-domain and were incubated with increasing concentrations of the PG3 analogs. After a 24 hr incubation, the excess compound was washed away, the cells were lysed and the amount of cleaved lamin A protein was quantified by the Mesoscale ELISA method.
SMILES,amount of Htt cleavage fragments interacting with caspase-6 [1],amount of Htt cleavage fragments [2],cleavage of the Htt protein to the 586 amino acid fragment [3],level of active caspase-6 enzyme [3],IC50 (recombinant caspase-6) [µM],melting point,IC50 [4] [µM]
"CC(C)[C@H](NC(=O)c1ccc2ccccc2n1)C(=O)N[C@@H](CC(=O)O)C(=O)COc1c(F)cccc1F [Q-VD-Oph, reference compound]",reduced,reduction,reduced cleavage,reduced level of active caspase-6 enzyme,–,–,–
"CC(C)c1c(O)nc(C#Cc2ccccc2)oc1=O [PG-3c, 4-Hydroxy-5-isopropyl-2-(phenylethynyl)-6H-1,3-oxazin-6-one]",–,–,–,–,12.2,202 to 203 °C,> 15
"Cc1c(O)nc(C#Cc2ccccc2Cl)oc1=O [PG-3f, 2-[(2-Chlorophenyl)ethynyl]-4-hydroxy-5-methyl-6H-1,3-oxazin-6-one]",–,–,–,–,57.3,175 to 178 °C,–
"O=c1oc(C#Cc2ccccc2)nc(O)c1-c1ccccc1 [PG-3e, 4-Hydroxy-5-phenyl-2-(phenylethynyl)-6H-1,3-oxazin-6-one]",–,–,–,–,3.9,187 to 189 °C,2.5
"Cc1c(O)nc(C#Cc2ccccc2)oc1=O [PG-3a, 4-Hydroxy-5-methyl-2-(phenylethynyl)-6H-1,3-oxazin-6-one]",–,–,–,–,8.2,184 to 186 °C,> 15
"O=C(C#Cc1ccccc1)NC(=O)Cc1ccccc1 [PG-3h, 3-Phenyl-N-(phenylacetyl)prop-2-ynamide]",–,–,–,–,8.1,–,4.8
"O=c1oc(C#Cc2ccc(Cl)cc2)nc(O)c1-c1ccccc1 [PG-3g, 2-[(4-Chlorophenyl)ethynyl]-4-hydroxy-5-phenyl-6H-1,3-oxazin-6-one]",–,–,–,–,7.5,185 to 187 °C (dec.),3.9
"CCCCc1c(O)nc(C#Cc2ccccc2)oc1=O [PG-3, 5-Butyl-4-hydroxy-2-(phenylethynyl)-6H-1,3-oxazin-6-one]",–,–,–,–,13.8,157 to 159 °C,–
"CCc1c(O)nc(C#Cc2ccccc2)oc1=O [PG-3b, 5-Ethyl-4-hydroxy-2-(phenylethynyl)-6H-1,3-oxazin-6-one]",–,–,–,–,8,177 to 178 °C,12.1
